The source made the active and inactive calls. No cut-off for these calls is given here.
Legend:
Cytochrome P450 2C19 = Cytochrome P450 2C19 (Homo sapiens, UniProt P33261); experiment: Time-dependent inhibition of CYP2C19 in human liver microsomes at 10 uM in presence of NADPH by LC-MS/MS analysis; assay type: ADME
U-87 MG [1] = experiment: Antiproliferative activity against human U-87 MG cells assessed as cell growth inhibition measured after 4 to 6 days by celltiter-glo luminescent cell viability assay; assay type: functional, cell-based, U-87MG ATCC
COLO 205 [2] = experiment: Antitumor activity against human COLO 205 cells xenografted in BALB/c mouse assessed as reduction in tumor volume at 30 mg/kg, po q3d for 11 days measured post last dose by caliper method; assay type: functional, organism-based; details: time 11.0 day
Cytochrome P450 2D6 = Cytochrome P450 2D6 (Homo sapiens, UniProt P10635); experiment: Time-dependent inhibition of CYP2D6 in human liver microsomes at 10 uM in presence of NADPH by LC-MS/MS analysis; assay type: ADME
Chain of Cytochrome P450 2D6 (P10635 whole entry): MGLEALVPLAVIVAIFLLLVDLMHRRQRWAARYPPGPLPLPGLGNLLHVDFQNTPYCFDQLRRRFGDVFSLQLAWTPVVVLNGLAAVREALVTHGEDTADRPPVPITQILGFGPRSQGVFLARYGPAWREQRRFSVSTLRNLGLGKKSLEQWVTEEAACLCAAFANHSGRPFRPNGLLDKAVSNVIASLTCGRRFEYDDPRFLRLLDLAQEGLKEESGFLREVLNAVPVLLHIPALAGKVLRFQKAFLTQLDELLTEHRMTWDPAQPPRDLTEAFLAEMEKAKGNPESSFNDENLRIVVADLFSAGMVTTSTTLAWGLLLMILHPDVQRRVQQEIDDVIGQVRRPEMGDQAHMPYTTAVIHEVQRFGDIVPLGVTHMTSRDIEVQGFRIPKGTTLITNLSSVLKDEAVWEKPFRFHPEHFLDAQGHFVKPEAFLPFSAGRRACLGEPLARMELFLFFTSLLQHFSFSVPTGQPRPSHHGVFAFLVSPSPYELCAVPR

Cytochrome P450 3A4 = Cytochrome P450 3A4 (Homo sapiens, UniProt P08684); experiment: Time-dependent inhibition of CYP3A4 in human liver microsomes at 10 uM in presence of NADPH by LC-MS/MS analysis; assay type: ADME
Chain of Cytochrome P450 3A4 (P08684 whole entry): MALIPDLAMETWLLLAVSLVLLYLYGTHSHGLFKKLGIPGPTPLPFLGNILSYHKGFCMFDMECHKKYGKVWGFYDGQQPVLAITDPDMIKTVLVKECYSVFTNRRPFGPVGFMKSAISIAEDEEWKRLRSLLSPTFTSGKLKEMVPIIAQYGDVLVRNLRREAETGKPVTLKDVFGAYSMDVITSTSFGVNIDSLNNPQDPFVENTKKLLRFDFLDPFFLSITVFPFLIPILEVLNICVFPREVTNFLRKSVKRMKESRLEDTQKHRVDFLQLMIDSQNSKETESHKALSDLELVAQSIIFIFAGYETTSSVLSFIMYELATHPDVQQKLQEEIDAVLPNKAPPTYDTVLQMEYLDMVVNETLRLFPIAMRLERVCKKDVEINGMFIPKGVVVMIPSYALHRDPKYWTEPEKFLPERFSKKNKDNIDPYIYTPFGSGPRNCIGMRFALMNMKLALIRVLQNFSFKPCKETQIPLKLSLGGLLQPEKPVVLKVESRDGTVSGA

CDK2/Cyclin A2 = CDK2/Cyclin A2 (Homo sapiens, UniProt P24941)
Description: Inhibition of CDK2/cyclin A2 (unknown origin)

CDK4/Cyclin D3 = CDK4/Cyclin D3 (Homo sapiens, UniProt P11802); experiment: Inhibition of recombinant human full-length N-terminal GST-fused CDK4 (1 to 303 residues)/GST-tagged CyclinD3 (1 to 292 residues) expressed in baculovirus expression system using ULight-elF4E-binding protein 1 peptide as substrate measured after 30 mins by LANCE assay
Chain of CDK4/Cyclin D3 (P11802 whole entry, the tested form may be a part): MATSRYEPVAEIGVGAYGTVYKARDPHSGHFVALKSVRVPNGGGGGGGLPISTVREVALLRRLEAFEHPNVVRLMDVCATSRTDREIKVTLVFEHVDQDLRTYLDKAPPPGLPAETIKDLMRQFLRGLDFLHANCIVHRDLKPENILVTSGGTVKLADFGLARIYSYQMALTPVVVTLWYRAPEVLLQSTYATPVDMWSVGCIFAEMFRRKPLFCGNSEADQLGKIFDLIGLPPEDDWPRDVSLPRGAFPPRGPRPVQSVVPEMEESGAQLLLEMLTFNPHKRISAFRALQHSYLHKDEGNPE
Chain of CDK4/Cyclin D3 (P30281 whole entry, further chain, the tested form may be a part): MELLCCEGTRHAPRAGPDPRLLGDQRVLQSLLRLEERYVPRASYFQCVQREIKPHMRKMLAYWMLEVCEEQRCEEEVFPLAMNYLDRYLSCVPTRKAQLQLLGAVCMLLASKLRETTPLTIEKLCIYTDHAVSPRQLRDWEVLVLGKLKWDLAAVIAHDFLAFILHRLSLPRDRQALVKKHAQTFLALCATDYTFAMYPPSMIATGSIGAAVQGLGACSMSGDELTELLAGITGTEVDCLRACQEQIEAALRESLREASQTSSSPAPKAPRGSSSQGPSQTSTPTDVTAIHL

[3] = Toxicity in human COLO 205 cells xenografted BALB/c mouse assessed as body weight loss at 3 mg/kg, po qd for 11 days relative to control; assay type: organism-based; details: in vivo, time 11 day
[4] = Half life in Sprague-Dawley rat at 6 mg/kg, po by LC-MS/MS analysis; assay type: ADME, organism-based; details: in vivo
MDA-MB-468 = experiment: Antiproliferative activity against human MDA-MB-468 cells assessed as cell growth inhibition measured after 4 to 6 days by celltiter-glo luminescent cell viability assay; assay type: functional, cell-based
COLO 205 [5] = experiment: Antitumor activity against human COLO 205 cells xenografted in BALB/c mouse assessed as tumor growth at 3 mg/kg, po q3d for 11 days measured post last dose relative to control; assay type: functional; details: time 11 day
[6] = Half life in Sprague-Dawley rat at 3 mg/kg, iv by LC-MS/MS analysis; assay type: ADME, organism-based; details: in vivo
COLO 205 [7] = experiment: Antitumor activity against human COLO 205 cells xenografted in BALB/c mouse assessed as tumor growth inhibition at 30 mg/kg, po q3d for 11 days relative to control; assay type: functional; details: COLO 205, po, time 11 day, read-out: TGI
COLO 205 [8] = experiment: Antiproliferative activity against human COLO 205 cells assessed as cell growth inhibition measured after 4 to 6 days by celltiter-glo luminescent cell viability assay; assay type: functional, cell-based
[9] = Volume of distribution at steady state in Sprague-Dawley rat at 3 mg/kg, iv by LC-MS/MS analysis; assay type: ADME, organism-based; details: in vivo, read-out: Vdss
CYP2D6 = CYP2D6 (Homo sapiens, UniProt P10635); experiment: Inhibition of CYP2D6 in human liver microsomes at 10 uM measured after 20 mins in presence of NADPH by LC-MS/MS analysis relative to control; assay type: ADME
Chain of CYP2D6 (P10635 whole entry): as the sequence (P10635 whole entry) above

[10] = Cmax in BALB/c mouse at 10 mg/kg, po by LC-MS/MS analysis; assay type: ADME, organism-based; design: route oral, dose 10 mg/kg; details: in vivo
COLO 205 [11] = experiment: Antitumor activity against human COLO 205 cells xenografted in po dosed BALB/c mouse assessed as tumor growth inhibition administered once daily or every three days for 11 days; assay type: functional, organism-based; details: time 11.0 day
[12] = Toxicity in human U-87 MG cells xenografted BALB/c mouse assessed as body weight loss at 10 mg/kg, po qd for 16 days relative to control; assay type: organism-based; details: in vivo, 384 h, time 16 day
[13] = AUC (0 to t) in Sprague-Dawley rat at 6 mg/kg, po by LC-MS/MS analysis; assay type: ADME, organism-based; design: dose 6 mg/kg; details: in vivo
Cytochrome P450 2C9 = Cytochrome P450 2C9 (Homo sapiens, UniProt P11712); experiment: Time-dependent inhibition of CYP2C9 in human liver microsomes at 10 uM in presence of NADPH by LC-MS/MS analysis; assay type: ADME
Chain of Cytochrome P450 2C9 (P11712 whole entry): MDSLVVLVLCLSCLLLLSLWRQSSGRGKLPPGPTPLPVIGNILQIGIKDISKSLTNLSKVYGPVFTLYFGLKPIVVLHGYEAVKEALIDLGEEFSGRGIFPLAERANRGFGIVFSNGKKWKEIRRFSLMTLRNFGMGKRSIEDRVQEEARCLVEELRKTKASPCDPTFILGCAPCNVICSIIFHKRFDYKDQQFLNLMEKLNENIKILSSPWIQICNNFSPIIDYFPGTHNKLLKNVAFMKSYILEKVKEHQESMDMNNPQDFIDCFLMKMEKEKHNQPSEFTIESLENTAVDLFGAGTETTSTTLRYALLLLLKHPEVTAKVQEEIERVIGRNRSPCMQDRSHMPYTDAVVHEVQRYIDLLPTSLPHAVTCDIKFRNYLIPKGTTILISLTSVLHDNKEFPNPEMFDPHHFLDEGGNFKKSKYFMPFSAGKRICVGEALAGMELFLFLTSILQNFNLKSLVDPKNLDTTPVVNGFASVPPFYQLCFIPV

CYP3A4 = CYP3A4 (Homo sapiens, UniProt P08684); experiment: Inhibition of CYP3A4 in human liver microsomes at 10 uM measured after 20 mins in presence of NADPH by LC-MS/MS analysis relative to control; assay type: ADME
Chain of CYP3A4 (P08684 whole entry): as the sequence (P08684 whole entry) above

[14] = Volume of distribution at steady state in BALB/c mouse at 3 mg/kg, iv by LC-MS/MS analysis; assay type: ADME, organism-based; details: in vivo, read-out: Vdss
[15] = AUC (0 to t) in BALB/c mouse at 10 mg/kg, po by LC-MS/MS analysis; assay type: ADME, organism-based; design: dose 10 mg/kg; details: in vivo
[16] = Toxicity in human COLO 205 cells xenografted BALB/c mouse assessed as body weight loss at 30 mg/kg, po q3d for 11 days relative to control; assay type: organism-based; details: in vivo, time 11 day
COLO 205 [17] = experiment: Antitumor activity against human COLO 205 cells xenografted in BALB/c mouse assessed as reduction in tumor volume at 3 mg/kg, po qd for 11 days measured post last dose by caliper method; assay type: functional, organism-based; details: time 11.0 day
[18] = Cmax in Sprague-Dawley rat at 6 mg/kg, po by LC-MS/MS analysis; assay type: ADME, organism-based; design: route oral, dose 6 mg/kg; details: in vivo
CYP2C19 = CYP2C19 (Homo sapiens, UniProt P33261); experiment: Inhibition of CYP2C19 in human liver microsomes at 10 uM measured after 20 mins in presence of NADPH by LC-MS/MS analysis relative to control; assay type: ADME
Chain of CYP2C19 (P33261 whole entry): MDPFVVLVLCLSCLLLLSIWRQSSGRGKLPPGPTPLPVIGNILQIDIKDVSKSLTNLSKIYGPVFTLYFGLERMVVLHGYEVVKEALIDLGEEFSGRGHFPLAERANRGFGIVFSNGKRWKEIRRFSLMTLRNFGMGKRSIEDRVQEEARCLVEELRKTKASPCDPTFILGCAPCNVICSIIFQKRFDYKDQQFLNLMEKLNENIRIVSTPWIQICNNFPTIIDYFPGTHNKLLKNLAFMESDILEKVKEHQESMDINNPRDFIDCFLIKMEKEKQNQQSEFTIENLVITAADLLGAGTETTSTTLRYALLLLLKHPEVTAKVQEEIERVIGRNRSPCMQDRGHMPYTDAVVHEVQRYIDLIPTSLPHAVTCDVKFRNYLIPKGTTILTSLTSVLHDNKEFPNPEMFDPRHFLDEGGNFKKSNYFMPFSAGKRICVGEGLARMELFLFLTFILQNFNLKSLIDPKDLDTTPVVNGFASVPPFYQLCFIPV

COLO 205 [19] = experiment: Antitumor activity against human COLO 205 cells xenografted in BALB/c mouse assessed as tumor growth at 3 mg/kg, po qd for 11 days measured post last dose relative to control; assay type: functional; details: time 11 day
[20] = Oral bioavailability in BALB/c mouse at 10 mg/kg by LC-MS/MS analysis; assay type: ADME, organism-based; details: in vivo
COLO 205 [21] = experiment: Cell cycle arrest in human COLO 205 cells assessed as accumulation at G0/G1 phase at 200 nM measured after 24 hrs by propidium iodide staining based flow cytometry relative to control; assay type: functional
[22] = Half life in BALB/c mouse at 3 mg/kg, iv by LC-MS/MS analysis; assay type: ADME, organism-based; details: in vivo
U-87 MG [23] = experiment: Antitumor activity against human U-87 MG cells xenografted in BALB/c mouse assessed as tumor growth inhibition at 10 mg/kg, po qd for 16 days relative to control; assay type: functional, U-87MG ATCC; details: 384 h, time 16 day, read-out: TGI

Chain of Cytochrome P450 2C19 (P33261 whole entry): as above

## CC(=O)c1c(C)c2cnc(Nc3ccc(N4CCNCC4)cc3)nc2n2cc(C(C)C)nc12
Cytochrome P450 2C19
  TDI: Not Active
U-87 MG [1]
  IC50: 84.6 nM
COLO 205 [2]
  Activity: Active
Cytochrome P450 2D6
  TDI: Not Active
Cytochrome P450 3A4
  TDI: Not Active
CDK2/Cyclin A2
  IC50: 18.9 nM
CDK4/Cyclin D3
  IC50: 0.8 nM
[3]
  Activity: < 20%
[4]
  half-life: 4.96 h
MDA-MB-468
  IC50: 874 nM
COLO 205 [5]
  T/C: 52%
[6]
  half-life: 3.25 h
COLO 205 [7]
  inhibition in vivo at 30 mg/kg: 85%
COLO 205 [8]
  IC50: 56.4 nM
[9]
  Vd: 35.2 L/kg
CYP2D6
  inhibition at […], 10 µM: 14%
[10]
  Cmax: 90 ng/mL
COLO 205 [11]
  TGI: Dose-dependent effect
[12]
  Activity: < 20%
[13]
  AUC(0-t): 1120 ng·h/mL
Cytochrome P450 2C9
  TDI: Not Active
CYP3A4
  inhibition at […], 10 µM: 8%
[14]
  Vd: 46.5 L/kg
[15]
  AUC(0-t): 318 ng·h/mL
[16]
  Activity: < 20%
COLO 205 [17]
  Activity: Active
[18]
  Cmax: 110 ng/mL
CYP2C19
  inhibition at […], 10 µM: 21%
COLO 205 [19]
  T/C: 33%
[20]
  bioavailability: 20.5%
COLO 205 [21]
  Activity: 94.2%
[22]
  half-life: 6.17 h
U-87 MG [23]
  inhibition in vivo at 10 mg/kg: 54%
